Assay results: patent US20230085307A1, “PYRIDAZINONE COMPOUND AND HERBICIDE” (NISSAN CHEMICAL CORPORATION, priority 2019, published 2023)

Key:
rice flat sedge = assay: Test Example 3: herbicidal effect by foliage application, Wagner pot (Table 18, symbol E); type: in vivo, rice flat sedge (Cyperus iria); settings: 320 g/ha
Procedure, shortened: (§1)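 Plants were sown in alluvial soil held under 0.1–0.5 cm standing water and grown 14 days in a greenhouse at 25–30 °C. An emulsifiable formulation, water-diluted to the set dose, was then sprayed onto the foliage, and effects were scored three weeks later using previously defined criteria.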

late watergrass [1] = assay: Test Example 1: herbicidal activity, application before weed generation under submerged conditions (Table 16, symbol A); type: in vivo, late watergrass (Echinochloa oryzicola); settings: 320 g/ha applied herbicide
Procedure, shortened: (§2)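 Emulsion formulation, water-diluted to set dose, was put onto the flooded surface (4 cm depth, alluvial soil) the same day weeds were sown and 2.5-leaf rice transplanted. After 3 weeks at 25-30 °C under glass, each species was rated 0 (≤5% kill) to 5 (≥90% kill).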

Japanese bulrush [2] = assay: Test Example 1: herbicidal activity, application before weed generation under submerged conditions (Table 16, symbol B); type: in vivo, Japanese bulrush (Schoenoplectus juncoides); settings: 320 g/ha applied herbicide
Procedure, shortened: as §2

barnyard grass = assay: Test Example 3: herbicidal effect by foliage application, Wagner pot (Table 18, symbol H); type: in vivo, barnyard grass (Echinochloa crus-galli); settings: 320 g/ha
Procedure, shortened: as §1

Chinese sprangletop = assay: Test Example 3: herbicidal effect by foliage application, Wagner pot (Table 18, symbol D); type: in vivo, chinese sprangletop (Leptochloa chinensis); settings: 320 g/ha
Procedure, shortened: as §1

oval-leafed pondweed [3] = assay: Test Example 1: herbicidal activity, application before weed generation under submerged conditions (Table 16, symbol C); type: in vivo, oval-leafed pondweed (Monochoria vaginalis); settings: 320 g/ha applied herbicide
Procedure, shortened: as §2

oval-leafed pondweed [4] = assay: Test Example 2: herbicidal activity, application during weed generation under submerged conditions (Table 17, symbol C); type: in vivo, oval-leafed pondweed (Monochoria vaginalis); settings: AAH 320 g/ha; application during weed generation, submerged conditions
Procedure, shortened: (§3)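 Effect on each weed is rated three weeks post-treatment, using the same scoring criteria as the preceding test. Plants grow from mixed-sown seed in flooded alluvial soil (4 cm water) at 25° C. to 30° C., and are treated at one to two leaves with diluted emulsion dropped onto the water.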

late watergrass [5] = assay: Test Example 2: herbicidal activity, application during weed generation under submerged conditions (Table 17, symbol A); type: in vivo, late watergrass (Echinochloa oryzicola); settings: AAH 320 g/ha; application during weed generation, submerged conditions
Procedure, shortened: as §3

Japanese bulrush [6] = assay: Test Example 2: herbicidal activity, application during weed generation under submerged conditions (Table 17, symbol B); type: in vivo, Japanese bulrush (Schoenoplectus juncoides); settings: AAH 320 g/ha; application during weed generation, submerged conditions
Procedure, shortened: as §3

Row | SMILES | herbicidal effect on E (rice flat sedge), rating 0-5 (rice flat sedge) | Herbicidal effect on A: late watergrass (grade 0-5) (late watergrass [1]) | Herbicidal effect on B: Japanese bulrush (grade 0-5) (Japanese bulrush [2]) | herbicidal effect on H (barnyard grass), rating 0-5 (barnyard grass) | herbicidal effect on D (Chinese sprangletop), rating 0-5 (Chinese sprangletop) | Herbicidal effect on C: oval-leafed pondweed (grade 0-5) (oval-leafed pondweed [3]) | herbicidal effect rating, C: oval-leafed pondweed (oval-leafed pondweed [4]) | herbicidal effect rating, A: late watergrass (late watergrass [5]) | herbicidal effect rating, B: Japanese bulrush (Japanese bulrush [6])
1 | C=C(C)CCOc1ccc(-c2sc3ccccc3c2-c2c(O)c(C)nn(C)c2=O)cc1 [1-210] | 4 (Herbicidal rate of 70% or more and less than 90%) | 5 (Herbicidal rate of 90% or more (almost completely withered)) | 5 (Herbicidal rate of 90% or more (almost completely withered)) | 5 (Herbicidal rate of 90% or more (almost completely withered)) | 5 (Herbicidal rate of 90% or more (almost completely withered)) | 5 (Herbicidal rate of 90% or more (almost completely withered)) | 4 (Herbicidal rate of 70% or more and less than 90%) | 3 (Herbicidal rate of 40% or more and less than 70%) | 3 (Herbicidal rate of 40% or more and less than 70%)
2 | CSCCCOc1ccc(-c2sc3ccccc3c2-c2c(O)c(C)nn(C)c2=O)cc1 [1-222] | 4 (Herbicidal rate of 70% or more and less than 90%) | 5 (Herbicidal rate of 90% or more (almost completely withered)) | 4 (Herbicidal rate of 70% or more and less than 90%) | 5 (Herbicidal rate of 90% or more (almost completely withered)) | 5 (Herbicidal rate of 90% or more (almost completely withered)) | 4 (Herbicidal rate of 70% or more and less than 90%) | 4 (Herbicidal rate of 70% or more and less than 90%) | 5 (Herbicidal rate of 90% or more (almost completely withered)) | 3 (Herbicidal rate of 40% or more and less than 70%)
